Source: US9409905B2, “Antibacterial compounds and methods for use” (PTC THERAPEUTICS, INC., priority 2011, dated 2016)
Values after ≈ are worked out from the molar mass of the structure shown. Where two headings read alike, the source gives them in different places.

Columns and labels:
E. coli 25922 = test: Antibacterial activity, microbroth dilution MIC (Table 1); format: cell-based, Escherichia coli
Method in brief: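 In a microbroth dilution test, the minimum inhibitory concentration was defined as the lowest compound level preventing growth seen by eye, and was given in μg/mL.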

[1] = tested on: Klebsiella pneumoniae (K. pneumoniae) 35657; test: Antibacterial activity, MIC (Table 4); format: cell-based
Method in brief: (§1)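 Activity was measured by microbroth dilution. The MIC, in μg/mL, is the lowest drug concentration that prevents macroscopically visible growth under the test conditions. The resistant strains are multi-drug resistant clinical isolates.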

[2] = tested on: Acinetobacter baumannii (A. baumannii) BAA747; test: Antibacterial activity, MIC (Table 4); format: cell-based
Method in brief: as §1

E. coli LZ3111 = test: Antibacterial activity, MIC, quinolone resistant strain (Table 2); format: cell-based; conditions: Escherichia coli, LZ3111, read-out: MIC LZ3111
Method in brief: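 Lowest concentration giving no macroscopically visible growth was taken as the MIC (μg/mL) after microbroth dilution testing.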

K. pneumoniae MXX1232 = test: Antibacterial activity, MIC, resistant strain (Table 4); format: cell-based; conditions: Klebsiella pneumoniae
Method in brief: as §1

A. baumannii MXX2240 = test: as above; format: cell-based; conditions: Acinetobacter baumannii
Method in brief: as §1

[3] = tested on: Escherichia coli (E. coli) BAS849; test: Antibacterial activity, microbroth dilution MIC (Table 1); format: cell-based
Method in brief: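 Lowest concentration stopping macroscopically visible growth under test conditions, by broth microdilution, defines the MIC (μg/mL).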

[4] = tested on: Staphylococcus aureus (S. aureus) 29213; test: as above; format: cell-based
Method in brief: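 Broth microdilution; endpoint = no macroscopic growth; value = lowest inhibiting concn, μg/mL.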

[5] = tested on: Pseudomonas aeruginosa (P. aeruginosa) 27853; test: Antibacterial activity, MIC (Table 5); format: cell-based
Method in brief: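 MIC in μg/mL from broth microdilution; endpoint is the lowest drug level giving no visible growth.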

[6] = Escherichia coli, microbroth dilution, control Gram-negative E. coli 25922 strain, read-out: MIC, 25922
[7] = K. pneumoniae 35657, read-out: MIC, 35657
[8] = A. baumannii BAA747, read-out: MIC, BAA747
[9] = MXX1232, resistant K. pneumoniae MMX1232, multi-drug resistant clinical isolate, read-out: MIC, MMX1232
[10] = MXX2240, resistant A. baumannii MMX2240, multi-drug resistant clinical isolate, read-out: MIC, MMX2240
[11] = microbroth dilution, super sensitive Gram-negative E. coli BAS849, read-out: MIC, BAS849
[12] = microbroth dilution, Gram-positive S. aureus 29213, read-out: MIC, 29213
[13] = P. aeruginosa 27853, read-out: MIC, 27853

SMILES | MIC (E. coli 25922; [6]) [mg/L] | MIC [1, 7] [mg/L] | MIC [2, 8] [mg/L] | MIC (E. coli LZ3111) [mg/L] | MIC (K. pneumoniae MXX1232; [9]) [mg/L] | MIC (A. baumannii MXX2240; [10]) [mg/L] | MIC [3, 11] [mg/L] | MIC [4, 12] [mg/L] | MIC [5, 13] [mg/L] | MIC (E. coli 25922; Escherichia coli, 25922, read-out: MIC, 25922) [mg/L] | MIC ([1]; read-out: MIC, 35657) [mg/L] | MIC ([2]; BAA747, read-out: MIC, BAA747) [mg/L] | MIC (K. pneumoniae MXX1232; MXX1232, read-out: MIC, MMX1232) [mg/L] | MIC (A. baumannii MXX2240; MXX2240, read-out: MIC, MMX2240) [mg/L] | MIC ([3]; read-out: MIC, BAS849) [mg/L] | MIC ([4]; read-out: MIC, 29213) [mg/L] | MIC ([5]; read-out: MIC, 27853) [mg/L]
CCc1c(-c2ccc3c4c([nH]c3c2)CCN(C)C4)[nH]c(=O)c(C(=O)O)c1O [Cpd 451, 5-ethyl-4-hydroxy-6-(2-methyl-2,3,4,5-tetrahydro-1H-pyrido[4,3-b]indol-7-yl)-2-oxo-1,2-dihydropyridine-3-carboxylic acid] | < 1 | < 1 | 3.5 to 12.5 (≈ 9.53 to 34 µM) | 3.5 to 12.5 (≈ 9.53 to 34 µM) | 12.5 to 150 (≈ 34 to 408 µM) | 12.5 to 150 (≈ 34 to 408 µM) | < 1 | 12.5 to 150 (≈ 34 to 408 µM) | 12.5 to 150 (≈ 34 to 408 µM) |  |  |  |  |  |  |  | 
CCCN1CCc2c([nH]c3cc(-c4[nH]c(=O)c(C(=O)O)c(O)c4CC)ccc23)C1 [Cpd 448, 5-ethyl-4-hydroxy-2-oxo-6-(2-propyl-2,3,4,9-tetrahydro-1H-pyrido[3,4-b]indol-7-yl)-1,2-dihydropyridine-3-carboxylic acid] |  |  |  | 3.5 to 12.5 (≈ 8.85 to 31.6 µM) |  |  |  |  |  | < 1 | 1 to 3.5 (≈ 2.53 to 8.85 µM) | 3.5 to 12.5 (≈ 8.85 to 31.6 µM) | 12.5 to 150 (≈ 31.6 to 379 µM) | 3.5 to 12.5 (≈ 8.85 to 31.6 µM) | < 1 | 12.5 to 150 (≈ 31.6 to 379 µM) | 12.5 to 150 (≈ 31.6 to 379 µM)
CCc1c(-c2ccc3c(ccn3C)c2O)[nH]c(=O)c(C(=O)O)c1O [Cpd 374, 5-ethyl-4-hydroxy-6-(4-hydroxy-1-methyl-1H-indol-5-yl)-2-oxo-1,2-dihydropyridine-3-carboxylic acid] | 12.5 to 150 (≈ 38.1 to 457 µM) | 12.5 to 150 (≈ 38.1 to 457 µM) | 12.5 to 150 (≈ 38.1 to 457 µM) | 12.5 to 150 (≈ 38.1 to 457 µM) | 12.5 to 150 (≈ 38.1 to 457 µM) | 12.5 to 150 (≈ 38.1 to 457 µM) | 12.5 to 150 (≈ 38.1 to 457 µM) | 12.5 to 150 (≈ 38.1 to 457 µM) | 12.5 to 150 (≈ 38.1 to 457 µM) |  |  |  |  |  |  |  | 
Cc1c(-c2ccc3c(c2)cc(CNC2CC2)n3C)[nH]c(=O)c(C(=O)O)c1O [Cpd 355, 6-(2-((cyclopropylamino)methyl)-1-methyl-1H-indol-5-yl)-4-hydroxy-5-methyl-2-oxo-1,2-dihydropyridine-3-carboxylic acid] | 3.5 to 12.5 (≈ 9.53 to 34 µM) | 3.5 to 12.5 (≈ 9.53 to 34 µM) | 3.5 to 12.5 (≈ 9.53 to 34 µM) | < 1 | 12.5 to 150 (≈ 34 to 408 µM) | < 1 | < 1 | 12.5 to 150 (≈ 34 to 408 µM) | 12.5 to 150 (≈ 34 to 408 µM) |  |  |  |  |  |  |  | 
CCc1cc(C(=O)O)c(=O)[nH]c1-c1ccc2c(c1)ncn2C [Cpd 53, 5-ethyl-6-(1-methyl-1H-benzo[d]imidazol-5-yl)-2-oxo-1,2-dihydropyridine-3-carboxylic acid] | 12.5 to 150 (≈ 42 to 505 µM) | 12.5 to 150 (≈ 42 to 505 µM) | 12.5 to 150 (≈ 42 to 505 µM) | 12.5 to 150 (≈ 42 to 505 µM) | 12.5 to 150 (≈ 42 to 505 µM) | 12.5 to 150 (≈ 42 to 505 µM) | 3.5 to 12.5 (≈ 11.8 to 42 µM) | 12.5 to 150 (≈ 42 to 505 µM) | 12.5 to 150 (≈ 42 to 505 µM) |  |  |  |  |  |  |  | 
Cc1c(-c2cnc3cc[nH]c3c2)[nH]c(=O)c(C(=O)O)c1O [Cpd 431, 4-hydroxy-5-methyl-2-oxo-6-(1H-pyrrolo[3,2-b]pyridin-6-yl)-1,2-dihydropyridine-3-carboxylic acid] | 12.5 to 150 (≈ 43.8 to 526 µM) | 12.5 to 150 (≈ 43.8 to 526 µM) | 12.5 to 150 (≈ 43.8 to 526 µM) | 12.5 to 150 (≈ 43.8 to 526 µM) | 12.5 to 150 (≈ 43.8 to 526 µM) | 12.5 to 150 (≈ 43.8 to 526 µM) | 12.5 to 150 (≈ 43.8 to 526 µM) | 12.5 to 150 (≈ 43.8 to 526 µM) | 12.5 to 150 (≈ 43.8 to 526 µM) |  |  |  |  |  |  |  | 
Cc1c(-c2ccc3c(c2)CC(=O)N3)[nH]c(=O)c(C(=O)O)c1O [Cpd 427, 4-hydroxy-5-methyl-2-oxo-6-(2-oxoindolin-5-yl)-1,2-dihydropyridine-3-carboxylic acid] | 12.5 to 150 (≈ 41.6 to 500 µM) | 12.5 to 150 (≈ 41.6 to 500 µM) | 12.5 to 150 (≈ 41.6 to 500 µM) | 12.5 to 150 (≈ 41.6 to 500 µM) | 12.5 to 150 (≈ 41.6 to 500 µM) | 12.5 to 150 (≈ 41.6 to 500 µM) | 12.5 to 150 (≈ 41.6 to 500 µM) | 12.5 to 150 (≈ 41.6 to 500 µM) | 12.5 to 150 (≈ 41.6 to 500 µM) |  |  |  |  |  |  |  | 
